Laboratory results as given in the supplement of paper PMC10307832.

Legend:
Assay in all cases: relative viability (nuclei count vs DMSO), 5 days (fraction); higher = more cells survive
Carboplatin + Navitoclax = compound: C1CC(C1)(C(=O)O)C(=O)O.[NH2-].[NH2-].[Pt+2] [Carboplatin] + CC1(C)CCC(c2ccc(Cl)cc2)=C(CN2CCN(c3ccc(C(=O)NS(=O)(=O)c4ccc(N[C@H](CCN5CCOCC5)CSc5ccccc5)c(S(=O)(=O)C(F)(F)F)c4)cc3)CC2)C1 [Navitoclax] (partner 0.5 µM)
Procedure, shortened: (§1)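 Each reported value is a median over duplicate plates. It expresses relative viability: treated-well nuclei count divided by vehicle-well nuclei count. Lung cancer cell lines in 1536-well plates were dosed by pin tool a day after seeding, alone with one drug or with a fixed anchor-drug dose plus five library-drug doses (not always all listed) in √10 steps, and nuclei were counted after 5 days.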

GSK126 + Palbociclib = compound: CC[C@H](C)N1C=C(C2=C(C=C(C=C21)C3=CN=C(C=C3)N4CCNCC4)C(=O)NCC5=C(C=C(NC5=O)C)C)C [GSK126] + CC(=O)c1c(C)c2cnc(Nc3ccc(N4CCNCC4)cn3)nc2n(C2CCCC2)c1=O [Palbociclib] (partner 0.5 µM)
Procedure, shortened: as §1

GSK126 + Navitoclax = compound: CC[C@H](C)N1C=C(C2=C(C=C(C=C21)C3=CN=C(C=C3)N4CCNCC4)C(=O)NCC5=C(C=C(NC5=O)C)C)C [GSK126] + CC1(C)CCC(c2ccc(Cl)cc2)=C(CN2CCN(c3ccc(C(=O)NS(=O)(=O)c4ccc(N[C@H](CCN5CCOCC5)CSc5ccccc5)c(S(=O)(=O)C(F)(F)F)c4)cc3)CC2)C1 [Navitoclax] (partner 0.5 µM)
Procedure, shortened: as §1

MLN4924 + Pemetrexed = compound: NS(=O)(=O)OC[C@@H]1C[C@@H](n2ccc3c(N[C@H]4CCc5ccccc54)ncnc32)C[C@@H]1O [MLN4924] + Nc1nc2[nH]cc(CCc3ccc(C(=O)N[C@@H](CCC(=O)O)C(=O)O)cc3)c2c(=O)[nH]1 [Pemetrexed] (partner 0.2 µM)
Procedure, shortened: as §1

Cell Line	relative viability (Carboplatin + Navitoclax; first compound 0.08 µM)	relative viability (Carboplatin + Navitoclax; first compound 0.253 µM)	relative viability (Carboplatin + Navitoclax; first compound 0.8 µM)	relative viability (Carboplatin + Navitoclax; first compound 2.53 µM)	relative viability (Carboplatin + Navitoclax; first compound 8 µM)	relative viability (GSK126 + Palbociclib; first compound 0.08 µM)	relative viability (GSK126 + Palbociclib; first compound 0.253 µM)	relative viability (GSK126 + Palbociclib; first compound 0.8 µM)	relative viability (GSK126 + Palbociclib; first compound 2.53 µM)	relative viability (GSK126 + Palbociclib; first compound 8 µM)	relative viability (GSK126 + Navitoclax; first compound 0.08 µM)	relative viability (GSK126 + Navitoclax; first compound 0.253 µM)	relative viability (GSK126 + Navitoclax; first compound 0.8 µM)	relative viability (GSK126 + Navitoclax; first compound 2.53 µM)	relative viability (GSK126 + Navitoclax; first compound 8 µM)	relative viability (MLN4924 + Pemetrexed; first compound 0.04 µM)	relative viability (MLN4924 + Pemetrexed; first compound 0.1265 µM)	relative viability (MLN4924 + Pemetrexed; first compound 0.4 µM)	relative viability (MLN4924 + Pemetrexed; first compound 1.265 µM)	relative viability (MLN4924 + Pemetrexed; first compound 4 µM)
NCI-H1651	0.973	1.13	0.982	0.904	0.538	0.493	0.512	0.515	0.537	0.514	1.19	0.943	1.07	1.07	1.2	0.632	0.693	0.703	0.509	0.171
LC-2-ad	0.37	0.49	0.422	0.436	0.326	0.497	0.489	0.479	0.481	0.478	0.468	0.383	0.506	0.477	0.484	0.288	0.27	0.257	0.218	0.221
NCI-H1734	0.873	0.905	0.873	0.729	0.676	0.384	0.348	0.342	0.375	0.333	0.895	0.845	0.843	0.881	0.86	0.497	0.514	0.252	0.128	0.125
NCI-H460	1.13	1.11	1.03	0.986	0.358	0.171	0.199	0.154	0.148	0.173	1.14	1.17	1.17	1.1	1.18	0.0658	0.0623	0.0708	0.059	0.0457
